We go through 17 molecules from patent US11312680B2, “Method for treating a patient having a colon cancer” (King Abdulaziz University, priority 2019, dated 2022).

pIC50: −log10 of the molar value.

For test [1], the system named is HCT116 colon cancer cells. Briefly: MTT viability assay against HCT-116 cells. The test is classed as cell-based, human. Here is the method: (§1) The KAC compounds were evaluated for antiproliferative effect against HCT-116 and MCF7 cell lines using the MTT viability assay and to calculate the relative IC50 values for each compound. Cells were seeded in triplicate in 96-well plates at a density of 10×10^3 cells/mL in a total volume of 100 μL per well and allowed to adhere overnight. Cells were treated with various concentrations of tested KAC compounds or 0.1% of DMSO (vehicle) for 27 h. Then the medium was discarded and 100 μL per well of MTT (5 mg/mL in PBS) containing medium was added. After incubation at 37° C. for 3 h, the MTT-containing medium was replaced by DMSO (100 μL per well) to dissolve the formazon crystal and incubated for 10 min. Absorbance of the solution was measured by microplate reader at […]. The IC50 values were calculated according to the dose-dependent curves using GraphPad prism, version 5.0. All the experiments were repeated in at least three independent experiments.

In a further test the test system is MCF7 breast cancer cells. The test can be described thus: MTT viability assay against MCF7 cells. The test is classed as cell-based, human. On the procedure: as §1
The test system of another test is HCT-116 cells. The test can be described thus: Cell cycle analysis of HCT-116 cells (propidium iodide flow cytometry). As to conditions: for cell cycle effect: HCT-116, 24 and 48 hours; for apoptosis: HCT-116, positive controls at 1 μM; for apoptosis / cells in G2/M phase / apoptosis, population in the sub-G1 phase: 48 h; for percentage of cells in G2/M phase: 24 h, control 9.0%; for apoptosis, population in the sub-G1 phase: control 0.9%. The test is classed as cell-based, human. On the procedure: Flow cytometric analysis was used to determine DNA level in any given cell that has been stained with propidium iodide (PI). PI is a fluorescent DNA intercalating agent which binds stoichiometrically to nucleic acid. When bounded to DNA, its fluorescence intensity increases 20 fold (excitation 488 nm and emission 600 nm). As cells pass singly through a beam of light their cell cycle state is analyzed. The fluorescent intensity of DNA-bound PI correlates to the DNA content of the cell. This allows the cell population in G1 phase (diploid −2n), G2M phase (4n), or S phase (2n-4n) to be differentiated by plotting a histogram of the PI fluorescence versus cell counts (linear scale). G1 and G2M can be seen as distinct peaks, with the S phase shown as the population between these two peaks. Apoptotic cells are hypo-diploid (pre-G1) and have a low PI fluorescence due to DNA fragmentation [Riccardi, C.; Nicoletti, I., Analysis of apoptosis by propidium iodide staining and flow cytometry. Nature protocols 2006, 1 (3), 1458-1461].
To study cell cycle stage, adherent and detached cells were collected by trypsinization and centrifuged at 800×g for 15 min. Cells were washed twice with ice-cold PBS and fixed with slow addition of ice-cold 70% ethanol overnight at −20° C. Fixed cells were centrifuged at 800×g for 15 min and the pellet was re-suspended in 400 μL PBS and transferred to LP5 FACS tubes then stained with 50 μg/mL of PI, containing 50 μg/mL of DNase-free RNase A (to degraded any double strand RNA present), at 37° C. for 30 min. The DNA content of cells (10,000 cells/experimental group) was analyzed by flow cytometer at 488 nm using a FACSCalibur flow cytometer (BD Biosciences, San Jose, Calif.).
In general, G2/M cell cycle arrest is strongly associated with inhibition of tubulin polymerization. The effect of KX-01 analogue, KAC-3, was investigated with colon cancer HCT-116 cells by flow cytometry at two concentrations (5 μM and 10 μM) for 24 and 48 hours. […] The percentage of cells in G2/M phase after 24 h was 13.3% and 41.7% at concentrations of 5 μM and 10 μM, respectively compared to the control (9.0%) (see FIG. 9). […] The cell cycle analysis results for KAC-3 are typical for tubulin targeting agents, which characteristically cause G2/M blockade followed by apoptosis [Perez, E. A., Microtubule inhibitors: Differentiating tubulin-inhibiting agents based on mechanisms of action, clinical activity, and resistance. Molecular cancer therapeutics 2009, 8 (8), 2086-2095]. […] Cancer research and treatment: official journal of Korean Cancer Association 2017, 49 (3), 643-655; and Anbalagan, M.; Carrier, L.; Glodowski, S.; Hangauer, D.; Shan, B.; Rowan, B. G., KX-01, a novel Src kinase inhibitor directed toward the peptide substrate site, synergizes with tamoxifen in estrogen receptor a positive breast cancer. Breast cancer research and treatment 2012, 132 (2), 391-409]. […] Frontiers in pharmacology 2017, 8, 244].
(Flow cytometry measures light scatter and fluorescence of single cells or particles in a stream.)

Another test has as its system N87 stomach cancer cells. The test can be described thus: MTT cytotoxicity assay against N87 cells. The test is classed as cell-based, human. Here is the method:
Cytotoxicity of all the compounds against N87 cells was determined using MTT assay. Briefly, 25,000 cells suspended in 0.1 mL of cell culture media were added in each well of a 96-well plate. After allowing the cells to attach for 24 h, media was aspirated from all the wells, and different concentrations of anticancer compounds in cell culture media were added to the wells in triplicate. Six wells were incubated with drug free media, and used as control. 96 hours after the treatment, 25 μL of MTT solution (5 mg/mL in phosphate saline buffer, pH 7.4) was added to each well, and the plate was incubated for 4.5 hours at 37° C. in the incubator. After incubation, 100 μL of 10% SDS in 0.01 M hydrochloric acid was added to each well, and the plate was incubated overnight at 37° C. The next day absorbance was determined in each well at 590 nm using a plate reader. IC50 value of each compound was determined using GraphPad Prism.
For orientation: Tetrazolium assays rely on reduction of a dye to a coloured formazan, in cell work by metabolically active cells.

Test [2] relates to MDA-MB-231 and BT-549 and MDA-MB-468 cells. As to conditions: MDA-MB-231, BT-549, MDA-MB-468 cells; literature; cited from earlier work.

In test [1] (Homo sapiens, HCT-116, 27 h), `COc1ccc(CNC(=O)Cc2ccc(NC(=O)c3cccc(Cl)c3)cc2)cc1` [KAC-15, 3-Chloro-N-(4-(2-((4-methoxybenzyl)amino)-2-oxoethyl)phenyl)benzamide] showed a pIC50 below 4.30.
With `O=C(Cc1ccc(NC(=O)c2ccccc2-c2ccccc2C(=O)N2CCCCC2)cc1)NCc1ccccc1` [KAC-05, N-(4-(2-(benzylamino)-2-oxoethyl)phenyl)-2′-(piperidine-1-carbonyl)-[1,1′-biphenyl]-2-carboxamide], the pIC50 in test [1] (Homo sapiens, HCT-116, 27 h) is below 4.30; with MCF7 breast cancer cells (Homo sapiens, MCF7, 27 h), 4.35.
`O=C(Cc1ccc(NC(=O)c2cccc(Cl)c2)cc1)NCc1ccc(F)cc1` [KAC-16, 3-Chloro-N-(4-(2-((4-fluorobenzyl)amino)-2-oxoethyl)phenyl)benzamide] gave a pIC50 in test [1] (Homo sapiens, HCT-116, 27 h) below 4.30.
`CC(=O)O[C@H]1C(=O)[C@@]2(C)[C@H]([C@H](OC(=O)c3ccccc3)[C@]3(O)C[C@H](OC(=O)[C@H](O)[C@@H](NC(=O)c4ccccc4)c4ccccc4)C(C)=C1C3(C)C)[C@]1(OC(C)=O)CO[C@@H]1C[C@@H]2O` [Paclitaxel, reference compound]: in the test on HCT-116 cells, the “cell cycle effect” value is “no significant difference in the other cell cycle phases” and the apoptosis is listed as 7.7%.
For the molecule `O=C(Cc1ccc(NC(=O)c2cccc(Cl)c2)cc1)NCc1ccco1` [KAC-18, 3-Chloro-N-(4-(2-((furan-2-ylmethyl)amino)-2-oxoethyl)phenyl)benzamide], the pIC50 in test [1] (Homo sapiens, HCT-116, 27 h) was 4.62.
For the molecule `CCN(CC)C(=O)c1ccccc1C(=O)Nc1ccc(CC(=O)NCc2ccccc2)cc1` [KAC-04, N^1-(4-(2-(benzylamino)-2-oxoethyl)phenyl)-N^2,N^2-diethylphthalamide], the negative logarithm of the IC50 (pIC50) in the test with N87 stomach cancer cells (Homo sapiens, 96 h) was below 4.30; with MCF7 breast cancer cells (Homo sapiens, MCF7, 27 h) it was below 4.30.
On to `Cc1ccc(NC(=O)c2ccc(CN3CCN(C)CC3)cc2)cc1Nc1nccc(-c2cccnc2)n1` [imatinib, reference compound], for which, in the test on HCT-116 cells, the “cell cycle effect” value is given as “no significant difference in the other cell cycle phases” and the apoptosis stood at 6.4%.
`Cc1ccc(S(=O)(=O)Nc2ccc(CC(=O)NCc3ccccc3)cc2)cc1` [KAC-10, N-benzyl-2-(4-((4-methylphenyl)sulfonamido)phenyl)acetamide] gave a pIC50 in test [1] (Homo sapiens, HCT-116, 27 h) of 4.64.
As for `CCN(CC)C(=O)c1ccccc1-c1ccccc1C(=O)Nc1ccc(CC(=O)NCc2ccccc2)cc1` [KAC-07, N^2-(4-(2-(benzylamino)-2-oxoethyl)phenyl)-N^2′,N^2′-diethyl-[1,1′-biphenyl]-2,2′-dicarboxamide], the negative-log IC50 (pIC50) in the test with N87 stomach cancer cells (Homo sapiens, 96 h) was below 4.30; with MCF7 breast cancer cells (Homo sapiens, MCF7, 27 h), below 4.30.
`O=C(Cc1ccc(NC(=O)c2ccccc2C(=O)N2CCCCC2)cc1)NCc1ccccc1` [KAC-02, N-(4-(2-(benzylamino)-2-oxoethyl)phenyl)-2-(piperidine-1-carbonyl)benzamide] had a negative-log IC50 (pIC50) with MCF7 breast cancer cells (Homo sapiens, MCF7, 27 h) of 5.02.
For the molecule `O=C(Cc1ccc(-c2ccc(OCCN3CCOCC3)cc2)cn1)NCc1ccccc1` [KX-01], the “cell cycle effect” value in test [2] was “induced significant G2M phase arrest”.
Turning to `O=C(Cc1ccc(NC(=O)c2ccccc2-c2ccccc2C(=O)N2CCOCC2)cc1)NCc1ccccc1` [KAC-06, N-(4-(2-(benzylamino)-2-oxoethyl)phenyl)-2′-(morpholine-4-carbonyl)-[1,1′-biphenyl]-2-carboxamide], the pIC50 was below 4.30 in the test on N87 stomach cancer cells (Homo sapiens, 96 h); 4.51 in test [1] (Homo sapiens, HCT-116, 27 h); 4.46 in the test on MCF7 breast cancer cells (Homo sapiens, MCF7, 27 h).
Turning to `CCC(=O)Nc1ccc(CC(=O)NCc2ccccc2)cc1` [KAC-09, N-(4-(2-(benzylamino)-2-oxoethyl)phenyl)propionamide], the pIC50 with N87 stomach cancer cells (96 hours) is 5.14; in the test with N87 stomach cancer cells (Homo sapiens, 96 h), 5.14; in test [1] (Homo sapiens, HCT-116, 27 h), below 4.30; in the test with MCF7 breast cancer cells (27 h), 4.43; with MCF7 breast cancer cells (Homo sapiens, MCF7, 27 h), 4.43.
`O=C(Cc1ccc(NC(=O)c2cccc(Cl)c2)cc1)NCCc1ccccc1` [KAC-17, 3-Chloro-N-(4-(2-oxo-2-(phenethylamino)ethyl)phenyl)benzamide] gave a pIC50 in test [1] (Homo sapiens, HCT-116, 27 h) of 4.59.
For the molecule `CC(=O)Nc1ccc(CC(=O)NCc2ccccc2)cc1` [KAC-01, 2-(4-acetamidophenyl)-N-benzylacetamide], the pIC50 was below 4.30 with N87 stomach cancer cells (Homo sapiens, 96 h); 4.73 in test [1] (27 h); 4.73 in test [1] (Homo sapiens, HCT-116, 27 h); 4.53 in the test with MCF7 breast cancer cells (Homo sapiens, MCF7, 27 h).
Consider `O=C(Cc1ccc(NC(=O)c2ccccc2)cc1)NCc1ccccc1` [KAC-08, N-(4-(2-(benzylamino)-2-oxoethyl)phenyl)benzamide], for which the “IC50 N87” value in the test on N87 stomach cancer cells (96 hours) is given as “much weaker”. The pIC50 in the test on N87 stomach cancer cells (Homo sapiens, 96 h) was below 4.30; in test [1] (27 h) it was 4.71; in test [1] (Homo sapiens, HCT-116, 27 h), 4.71; in the test on MCF7 breast cancer cells (27 h), 5.58; in the test with MCF7 breast cancer cells (Homo sapiens, MCF7, 27 h), 5.59.
Regarding `O=C(Cc1ccc(NC(=O)c2ccccc2C(=O)N2CCOCC2)cc1)NCc1ccccc1` [KAC-03, N-(4-(2-(benzylamino)-2-oxoethyl)phenyl)-2-(morpholine-4-carbonyl)benzamide], the pIC50 was 4.74 in the test with N87 stomach cancer cells (Homo sapiens, 96 h); 5.32 in test [1] (27 h); 5.32 in test [1] (Homo sapiens, HCT-116, 27 h); 5.46 with MCF7 breast cancer cells (Homo sapiens, MCF7, 27 h). The “percentage of cells in G2/M phase” value is recorded as 13.3% in the test with HCT-116 cells (HCT-116, 5 μM) and 41.7% in the test on HCT-116 cells (HCT-116, 10 μM). Moreover, the “cells in G2/M phase” value in the test on HCT-116 cells (HCT-116, 5 μM) was 30.7%; in the test on HCT-116 cells (HCT-116, 10 μM), 32.8%. The “apoptosis, population in the sub-G1 phase” value was determined as 8.7% in the test on HCT-116 cells (HCT-116, 5 μM) and 11.6% in the test with HCT-116 cells (HCT-116, 10 μM). The “cell cycle effect” value in the test with HCT-116 cells was “significant G2/M arrest in a time- and concentration-dependent manner”.

What is called pIC50 is the IC50 on a negative log10 scale, so that one unit is a factor of ten.
